The results in this text go back to patent US9139523B2, “5-HT2B receptor antagonists” (Janssen Pharmaceutica, NV, priority 2010, dated 2015).

One series has as its target T1, Alpha1A (Homo sapiens, UniProt P35348).
T1 construct: expressed in transfected cells; host or cells: CHO (membrane fraction)
T1 sequence (P35348 1-466): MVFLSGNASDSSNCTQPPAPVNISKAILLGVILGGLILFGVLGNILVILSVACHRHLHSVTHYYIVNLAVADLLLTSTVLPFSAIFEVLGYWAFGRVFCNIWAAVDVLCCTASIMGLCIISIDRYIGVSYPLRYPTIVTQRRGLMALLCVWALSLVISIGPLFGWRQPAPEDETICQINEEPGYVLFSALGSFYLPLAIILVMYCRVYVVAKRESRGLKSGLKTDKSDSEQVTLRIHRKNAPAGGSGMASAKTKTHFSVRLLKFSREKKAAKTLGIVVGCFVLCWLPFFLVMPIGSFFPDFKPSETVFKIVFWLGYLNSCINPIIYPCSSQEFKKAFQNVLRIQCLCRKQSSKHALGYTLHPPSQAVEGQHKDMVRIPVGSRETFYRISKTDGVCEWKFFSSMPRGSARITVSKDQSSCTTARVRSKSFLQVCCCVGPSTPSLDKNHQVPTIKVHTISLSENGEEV
The series can be described thus: Competitive radioligand binding, Alpha1A. The conditions noted are these: CHO membranes, 3H-prazosin 0.25 nM; read-out: pIC50 Alpha1A (converted). As for the experimental part: (§1) Competitive radioligand binding assays were used to determine the affinity of the test compounds for a particular receptor. Various concentrations of the non-labelled test compound were added to the incubation mixture with the membrane fraction, containing the receptor of interest, and a fixed low concentration (nM) of the radioligand. During the incubation the radioligand bound to the receptor, but this was inhibited by the non-labelled test compound in proportion to its binding affinity and concentration.
(§2) Cell lines were established that stably express the human variant of the receptor under investigation after transfection with the appropriate cDNA (Table 1). Transfected cells were grown under standard culture conditions, and membrane fractions were obtained upon centrifugation and homogenisation of the cells. Optimal membrane dilutions for binding studies were determined and aliquots were stored at −70° C. until use. In a 96-well plate format, the appropriate radioligand was added to the membrane preparation containing the receptor under investigation. Compound solutions were prepared in DMSO, and diluted 100-fold into the multiwell plate to a final test concentration of 10^−9 to 10^−5 M. After incubation with the test compound, the unbound radioligand was removed by filtration on G/F filters with a Filtermate 96. Microscint™ was added to the washed filter plates and the radioactivity bound to the receptor was measured by liquid scintillation counting in a TopCount (Packard). To measure the Non-Specific Binding (NSB), a high concentration of the non-radiolabeled ligand was added to wells containing the membrane fraction and the radioligand.
(§3) Using in house developed software, a best-fit curve was fitted by a minimum sum of squares method to the plot of % inhibition vs. concentration of the test compound. From this, the pIC50 value (inhibitory concentration causing 50% displacement of specific binding) was determined, as well as an estimate of the slope of the plot (Hill coefficient).

A further series has as its target T2, 5HT1A (Homo sapiens, UniProt P08908).
T2 construct: expressed in transfected cells; host or cells: HEK293 (membrane fraction)
T2 sequence (P08908 1-422): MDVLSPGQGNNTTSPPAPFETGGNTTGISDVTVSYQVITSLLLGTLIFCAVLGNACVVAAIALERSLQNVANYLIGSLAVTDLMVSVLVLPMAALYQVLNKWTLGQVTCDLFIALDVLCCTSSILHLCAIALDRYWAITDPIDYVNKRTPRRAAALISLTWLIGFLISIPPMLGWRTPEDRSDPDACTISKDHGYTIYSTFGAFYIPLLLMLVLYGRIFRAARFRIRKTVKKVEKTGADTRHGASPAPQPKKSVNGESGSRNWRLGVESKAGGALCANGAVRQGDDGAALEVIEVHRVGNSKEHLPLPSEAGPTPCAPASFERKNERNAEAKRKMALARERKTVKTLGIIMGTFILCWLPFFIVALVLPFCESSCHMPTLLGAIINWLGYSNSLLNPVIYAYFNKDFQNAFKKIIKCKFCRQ
The experiment in a line: Competitive radioligand binding, 5HT1A. The following applies: HEK293 membranes, 3H-8-OH-DPAT 0.5 nM; read-out: pIC50 5HT1A (converted). The procedure: as §1, §2, §3

A further series has as its target T3, 5HT3A/B (Homo sapiens, UniProt O95264+P46098).
T3 construct: expressed in transfected cells; host or cells: HEK293 (membrane fraction)
T3 sequence (P46098 24-478): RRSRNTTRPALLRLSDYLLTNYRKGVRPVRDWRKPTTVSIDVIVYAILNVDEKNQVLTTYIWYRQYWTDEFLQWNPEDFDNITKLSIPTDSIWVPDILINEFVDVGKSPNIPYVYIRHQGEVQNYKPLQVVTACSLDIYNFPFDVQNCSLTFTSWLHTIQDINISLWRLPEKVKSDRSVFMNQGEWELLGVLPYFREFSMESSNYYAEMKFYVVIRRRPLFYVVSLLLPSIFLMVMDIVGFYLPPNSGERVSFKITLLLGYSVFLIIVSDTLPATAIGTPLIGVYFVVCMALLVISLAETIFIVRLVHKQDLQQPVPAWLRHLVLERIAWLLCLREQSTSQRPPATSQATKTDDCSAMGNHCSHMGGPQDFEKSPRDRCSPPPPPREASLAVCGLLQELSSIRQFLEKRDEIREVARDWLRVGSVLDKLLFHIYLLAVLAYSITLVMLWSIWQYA
T3 sequence (O95264 22-441): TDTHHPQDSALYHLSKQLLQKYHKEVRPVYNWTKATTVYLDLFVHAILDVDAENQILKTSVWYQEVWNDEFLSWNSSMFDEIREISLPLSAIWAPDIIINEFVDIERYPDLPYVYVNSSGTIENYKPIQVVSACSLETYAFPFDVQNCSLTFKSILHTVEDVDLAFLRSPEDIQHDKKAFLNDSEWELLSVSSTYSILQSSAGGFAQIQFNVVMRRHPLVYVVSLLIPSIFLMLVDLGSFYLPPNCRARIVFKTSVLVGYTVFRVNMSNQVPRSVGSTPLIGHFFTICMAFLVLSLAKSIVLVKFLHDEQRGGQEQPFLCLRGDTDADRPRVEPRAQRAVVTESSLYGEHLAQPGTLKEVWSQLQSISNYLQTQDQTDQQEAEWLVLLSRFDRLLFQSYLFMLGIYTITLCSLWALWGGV
The experiment in a line: Competitive radioligand binding, 5HT3A/B. The conditions noted are these: HEK293 membranes, 3H-GR65630 0.5 nM; read-out: pIC50 5HT3A/B (converted). The procedure:
as §1, §2, §3

For a further series, the target named is T4, D2L (Homo sapiens, UniProt P14416).
T4 construct: expressed in transfected cells; host or cells: CHO (membrane fraction)
T4 sequence (P14416 whole entry): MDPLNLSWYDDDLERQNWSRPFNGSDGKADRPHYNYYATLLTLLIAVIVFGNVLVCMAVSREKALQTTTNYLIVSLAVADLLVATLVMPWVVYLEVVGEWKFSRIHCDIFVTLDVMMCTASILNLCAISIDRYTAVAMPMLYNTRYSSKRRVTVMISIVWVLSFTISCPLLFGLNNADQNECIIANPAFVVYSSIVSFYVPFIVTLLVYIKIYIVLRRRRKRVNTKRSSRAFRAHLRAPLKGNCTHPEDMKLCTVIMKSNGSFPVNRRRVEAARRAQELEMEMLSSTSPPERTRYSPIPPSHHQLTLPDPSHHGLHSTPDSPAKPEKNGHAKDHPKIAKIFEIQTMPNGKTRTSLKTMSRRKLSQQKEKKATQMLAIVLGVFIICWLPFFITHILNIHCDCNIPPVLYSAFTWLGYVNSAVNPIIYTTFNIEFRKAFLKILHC
The experiment in a line: Competitive radioligand binding, D2L. The following applies: CHO membranes, 3H-spiperone 0.2 nM; read-out: pIC50 D2L (converted). As for the experimental part:
as §1, §2, §3

The next series concerns anesthetized guinea-pig. The series can be described thus: Cardiovascular effects in the anaesthetized guinea-pig. The class given is in vivo. The conditions noted are these: guinea pig, 0.02 mg/kg i.v. over 1 min, 15 min after onset of last vehicle infusion. The procedure:
Female guinea-pigs were anesthetized with sodium pentobarbital (66 mg/kg i.p.) followed by a continuous i.v. infusion of 6 mg/h of sodium pentobarbital and prepared for measurements of the surface electrocardiogram (ECG), heart rate and mean arterial blood pressure (see De Clerck et al, Fundam. Clin. Pharm.; 2002; 16: 125-140). Compound (−)-17 was dissolved in 20% hydroxypropyl-cyclodextrin with NaOH, HCl and mannitol in pyrogen-free water and administered intravenously (0.5 ml/kg) in increasing doses (0.16, 0.32, 0.64, 1.25, 2.5 and 5 mg/kg) over a period of 5 min at 15-min intervals. Plasma concentrations of Compound (−)-17 were measured at the end of each infusion. Corresponding volumes of vehicle were administered according to the same protocol in a second group of animals.

In the case of `COc1cc(N)c(Cl)cc1C(=O)NC1CCN(CCCOc2ccc(F)cc2)CC1OC` (centres unmarked) [Cisapride, reference compound], the IC50 was 407 nM on Alpha1A, 1950 nM at 5HT1A, 1150 nM at 5HT3A/B and 537 nM at D2L.
Regarding `CN(CCOc1ccc(NS(C)(=O)=O)cc1)CCc1ccc(NS(C)(=O)=O)cc1` [dofetilide, reference compound], the heart rate entry in the series on anesthetized guinea-pig is “decreased”.
